Where “and” joins values, the source holds several entries; their conditions need not be identical. Equal entries are not always repeated. Toxic doses and inconclusive results are not listed.
System: P388 leukemia ip, CD2F1 mice, survival T/C
Assay: NCI In Vivo Anticancer Drug Screen. Data for tumor model P388 Leukemia (intraperitoneal) in CD2F1 (CDF1) mice
Conditions: endpoint: median survival time, higher = longer survival
Summary of the method: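 Mice carrying the transplanted tumor received test compound or vehicle. Survival was recorded in each group, and the value is the treated-group measurement divided by that of the vehicle-treated control group.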

[1] = dose: 6.25 mg/kg/injection, schedule: Q01DX009 (ip), vehicle: Klucel (hydroxypropylcellulose) (HPC)
[2] = dose: 12.5 mg/kg/injection, schedule: Q01DX009 (ip), vehicle: Klucel (hydroxypropylcellulose) (HPC)
[3] = dose: 25.0 mg/kg/injection, schedule: Q01DX009 (ip), vehicle: Klucel (hydroxypropylcellulose) (HPC)
[4] = dose: 50.0 mg/kg/injection, schedule: Q01DX001 (ip), vehicle: Klucel (hydroxypropylcellulose) (HPC)
[5] = dose: 100.0 mg/kg/injection, schedule: Q01DX001 (ip), vehicle: Klucel (hydroxypropylcellulose) (HPC)
[6] = dose: 60.0 mg/kg/injection, schedule: Q01DX005 (ip), vehicle: saline with Tween-80
[7] = dose: 120.0 mg/kg/injection, schedule: Q01DX005 (ip), vehicle: saline with Tween-80
[8] = dose: 50.0 mg/kg/injection, schedule: Q01DX009 (ip), vehicle: Klucel (hydroxypropylcellulose) (HPC)
[9] = dose: 100.0 mg/kg/injection, schedule: Q01DX009 (ip), vehicle: Klucel (hydroxypropylcellulose) (HPC)
[10] = dose: 50.0 mg/kg/injection, schedule: Q01DX009 (ip), vehicle: saline
[11] = dose: 200.0 mg/kg/injection, schedule: Q01DX009 (ip), vehicle: Klucel (hydroxypropylcellulose) (HPC)

COc1cc(Cc2n[nH]c(=S)n2-c2ccccc2)c(S(=O)(=O)N2CCOCC2)cc1OC
T/C (dose: 60.0 mg/kg/injection, schedule: Q01DX005 (ip), vehicle: saline): 102 % of control
T/C (dose: 120.0 mg/kg/injection, schedule: Q01DX005 (ip), vehicle: saline): 95 % of control
T/C (dose: 240.0 mg/kg/injection, schedule: Q01DX005 (ip), vehicle: saline): 95 % of control

COc1cc2ccnc(C3(O)CCN(C)CC3)c2cc1OC
T/C [1]: 94 % of control
T/C [2]: 98 % of control
T/C [3]: 93 % of control
T/C [4]: 102 % of control
T/C [5]: 105 % of control
T/C (dose: 200.0 mg/kg/injection, schedule: Q01DX001 (ip), vehicle: Klucel (hydroxypropylcellulose) (HPC)): 97 % of control

CC(=O)CC(=O)c1ccc(Br)cc1.CC(=O)CC(=O)c1ccc(Br)cc1.[Ni]
T/C (dose: 100.0 mg/kg/injection, schedule: Q01DX001 (ip), vehicle: saline with Tween-80): 90 % of control
T/C (dose: 200.0 mg/kg/injection, schedule: Q01DX001 (ip), vehicle: saline with Tween-80): 87 % of control
T/C (dose: 400.0 mg/kg/injection, schedule: Q01DX001 (ip), vehicle: saline with Tween-80): 90 % of control

CCOC(=O)N1CCN(c2cc(C)nc3cc(OC)ccc23)CC1
T/C [6]: 88 % of control
T/C [7]: 94 % of control

CSCCC(C(=O)O)N(CCC#N)CCC#N (stereo unspecified)
T/C (dose: 50.0 mg/kg/injection, schedule: Q01DX005 (ip), vehicle: saline): 98 % of control
T/C (dose: 100.0 mg/kg/injection, schedule: Q01DX005 (ip), vehicle: saline): 102 % of control
T/C (dose: 200.0 mg/kg/injection, schedule: Q01DX005 (ip), vehicle: saline): 100 % of control

COC(=O)c1cc(NC(=O)NNC(=O)c2ccncc2)cc(C(=O)OC)c1
T/C [2]: 100 % of control
T/C [3]: 98 % of control
T/C [8]: 116 % of control and 98 % of control
T/C [9]: 90 % of control

CC1=C(C)C(=O)OC(C(C)(O)C2(O)CC=C3C4CC(O)C5(O)C(O)C=CC(=O)C5(C)C4CCC32C)C1 (stereo unspecified)
T/C (dose: 7.75 mg/kg/injection, schedule: Q01DX005 (ip), vehicle: Klucel (hydroxypropylcellulose) (HPC)): 105 % of control
T/C (dose: 15.5 mg/kg/injection, schedule: Q01DX005 (ip), vehicle: Klucel (hydroxypropylcellulose) (HPC)): 105 % of control
T/C (dose: 31.0 mg/kg/injection, schedule: Q01DX005 (ip), vehicle: Klucel (hydroxypropylcellulose) (HPC)): 106 % of control

CN(C)c1ccc(/C=C2\C=Cc3ccccc32)cc1Cl
T/C (dose: 6.25 mg/kg/injection, schedule: Q01DX009 (ip), vehicle: saline): 101 % of control
T/C (dose: 12.5 mg/kg/injection, schedule: Q01DX009 (ip), vehicle: saline): 87 % of control
T/C (dose: 25.0 mg/kg/injection, schedule: Q01DX009 (ip), vehicle: saline): 94 % of control
T/C [10]: 94 % of control

CSc1nc(NC2OC(COC(C)=O)C(OC(C)=O)C(OC(C)=O)C2OC(C)=O)c(N=C(C)C(C)=O)c(=O)n1C (stereo unspecified)
T/C [6]: 90 % of control
T/C [7]: 91 % of control

O=C1NC(=O)C(c2ccccc2)(c2ccccc2)N1S(=O)(=O)c1ccccc1
T/C [8]: 100 % of control
T/C [9]: 108 % of control
T/C [11]: 106 % of control

CCOC(=O)C1=C(C)N(C)C(C)=C(C(=O)OCC)C1c1ccc(Cl)cc1
T/C (dose: 25.0 mg/kg/injection, schedule: Q01DX009 (ip), vehicle: distilled water + Tween-80): 99 % of control
T/C (dose: 50.0 mg/kg/injection, schedule: Q01DX009 (ip), vehicle: distilled water + Tween-80): 97 % of control
T/C (dose: 100.0 mg/kg/injection, schedule: Q01DX009 (ip), vehicle: distilled water + Tween-80): 89 % of control
T/C (dose: 400.0 mg/kg/injection, schedule: Q01DX009 (ip), vehicle: distilled water + Tween-80): 98 % of control

CCSc1nnc(C2CCC(=O)N2Cc2ccccc2)o1 (stereo unspecified)
T/C [6]: 94 % of control
T/C [7]: 100 % of control
T/C (dose: 240.0 mg/kg/injection, schedule: Q01DX005 (ip), vehicle: saline with Tween-80): 100 % of control

CC(=O)O.CC(=O)O.CC(=O)O.CC(=O)O.[Rh].[Rh]
T/C (dose: 1.56 mg/kg/injection, schedule: Q01DX009 (ip), vehicle: Klucel (hydroxypropylcellulose) (HPC)): 111 % of control
T/C (dose: 3.13 mg/kg/injection, schedule: Q01DX009 (ip), vehicle: Klucel (hydroxypropylcellulose) (HPC)): 117 % of control
T/C [1]: 99 % of control
T/C (dose: 6.25 mg/kg/injection, schedule: Q04DX003 (ip), vehicle: saline): 100 % of control
T/C [2]: 115 % of control
T/C (dose: 12.5 mg/kg/injection, schedule: Q04DX003 (ip), vehicle: saline): 100 % of control
T/C (dose: 25.0 mg/kg/injection, schedule: Q04DX003 (ip), vehicle: saline): 122 % of control

COc1ccc(Cc2nnc(C)c3c(C)[nH]nc23)cc1
T/C [8]: 91 % of control
T/C [9]: 91 % of control
T/C [11]: 86 % of control

Cc1ccccc1[B-]12OCC[N+]1(CNC(=O)C1=C(O)C3(O)C(=O)C4=C(O)c5c(O)cccc5C(C)(O)C4CC3C(N(C)C)C1=O)CCO2 (stereo unspecified)
T/C (dose: 50.0 mg/kg/injection, schedule: Q01DX005 (ip), vehicle: Klucel (hydroxypropylcellulose) (HPC)): 110 % of control
T/C (dose: 100.0 mg/kg/injection, schedule: Q01DX005 (ip), vehicle: Klucel (hydroxypropylcellulose) (HPC)): 115 % of control
T/C (dose: 200.0 mg/kg/injection, schedule: Q01DX005 (ip), vehicle: Klucel (hydroxypropylcellulose) (HPC)): 108 % of control

CCOC(=O)NNS(=O)(=O)CCC(NC(=O)OCc1ccccc1)C(=O)OCc1ccccc1 (stereo unspecified)
T/C (dose: 12.5 mg/kg/injection, schedule: Q01DX009 (ip), vehicle: other): 96 % of control
T/C (dose: 25.0 mg/kg/injection, schedule: Q01DX009 (ip), vehicle: other): 104 % of control
T/C (dose: 50.0 mg/kg/injection, schedule: Q01DX009 (ip), vehicle: other): 104 % of control
T/C (dose: 100.0 mg/kg/injection, schedule: Q01DX009 (ip), vehicle: other): 104 % of control
T/C (dose: 200.0 mg/kg/injection, schedule: Q01DX009 (ip), vehicle: other): 104 % of control

NC(=O)N/N=C1\CCC2CCCCC2C1 (stereo unspecified)
T/C (dose: 25.0 mg/kg/injection, schedule: Q01DX001 (ip), vehicle: Klucel (hydroxypropylcellulose) (HPC)): 107 % of control
T/C [4]: 101 % of control
T/C [5]: 100 % of control

COC(=O)/C=C1\C(=O)OC(C)(C)C1(C)C
T/C [8]: 111 % of control
T/C [9]: 100 % of control
T/C [11]: 103 % of control

Cc1ccc(CC(=O)O)cc1C
T/C (dose: 100.0 mg/kg/injection, schedule: Q04DX003 (ip), vehicle: saline with Tween-80): 190 % of control
T/C (dose: 200.0 mg/kg/injection, schedule: Q04DX003 (ip), vehicle: saline with Tween-80): 113 % of control
T/C (dose: 400.0 mg/kg/injection, schedule: Q04DX003 (ip), vehicle: saline with Tween-80): 113 % of control

O=P(c1ccccc1)(c1ccccc1)c1ccccc1.O=P(c1ccccc1)(c1ccccc1)c1ccccc1.O=P(c1ccccc1)(c1ccccc1)c1ccccc1.O=P(c1ccccc1)(c1ccccc1)c1ccccc1.[O-][Cl+3]([O-])([O-])O.[O]=[U+2]=[O]
T/C (dose: 6.25 mg/kg/injection, schedule: Q01DX009 (ip), vehicle: saline with Tween-80): 88 % of control
T/C (dose: 12.5 mg/kg/injection, schedule: Q01DX009 (ip), vehicle: saline with Tween-80): 90 % of control

CCOC(=O)CS(=O)(=O)CCCS(=O)(=O)CC(=O)OCC
T/C [10]: 97 % of control
T/C (dose: 100.0 mg/kg/injection, schedule: Q01DX009 (ip), vehicle: saline): 96 % of control
T/C (dose: 200.0 mg/kg/injection, schedule: Q01DX009 (ip), vehicle: saline): 94 % of control

CSNC(C)=O
T/C (dose: 25.0 mg/kg/injection, schedule: Q01DX009 (ip), vehicle: saline with Tween-80): 102 % of control
T/C (dose: 50.0 mg/kg/injection, schedule: Q01DX009 (ip), vehicle: saline with Tween-80): 109 % of control
T/C (dose: 100.0 mg/kg/injection, schedule: Q01DX009 (ip), vehicle: saline with Tween-80): 111 % of control

Cc1c(NC(=O)Nc2c(Cl)cccc2Cl)c(=O)n(-c2ccccc2)n1C
T/C [8]: 102 % of control
T/C [9]: 106 % of control
T/C [11]: 97 % of control

COc1ccc(N(C)C(=O)c2ccccc2S(=O)(=O)c2ccccc2C(=O)N(C)c2ccc(OC)cc2)cc1
T/C (dose: 50.0 mg/kg/injection, schedule: Q01DX005 (ip), vehicle: saline with Tween-80): 104 % of control
T/C (dose: 100.0 mg/kg/injection, schedule: Q01DX005 (ip), vehicle: saline with Tween-80): 98 % of control
T/C (dose: 200.0 mg/kg/injection, schedule: Q01DX005 (ip), vehicle: saline with Tween-80): 100 % of control
